Biological target: T1, LPAR1 receptor (Homo sapiens, UniProt Q92633)
T1 construct: expressed in transfected cells
Experiment: LPAR1 in vitro biological activity evaluation 2: HTRF cAMP kit (LANCE Ultra cAMP Kit) assay in CHO stable transfected cell line expressing the LPAR1 receptor
Assay type: cell-based
Settings: Table 2, read-out: LPAR1 inhibitory activity IC50
Method: The inhibitory effects of the compounds of the present disclosure on the LPAR1 receptor were determined using a Chinese hamster ovary (CHO) stable transfected cell line expressing the LPAR1 receptor, through the HTRF cAMP kit (LANCE® Ultra cAMP Kit).
The CHO cell line expressing the LPAR1 receptor was cultured in F-12 medium (Gibco, 117650054) containing 10% fetal bovine serum (FBS, Avantor, 76294-180) and 0.2 mg/mL hygromycin B (Solarbio, H8080-1g) at 37°C with 5% CO2. Cell passage, recovery, and cryopreservation were performed according to conventional methods. The stable transfected cell line was cultured to 80% confluence, digested with trypsin to collect cells, counted, and then seeded at 5 µL/well in a 384-well plate (500 cells/5 µL). The 1× Stimulation Buffer was prepared according to the instructions of the kit (LANCE® Ultra cAMP Kit). 1 µL of the test compound solution (diluted to 10× with 1× Stimulation Buffer) was added to the corresponding experimental wells, followed by centrifugation and incubation at 37°C for 10 minutes. […] 5 µL/well of Eu-cAMP (diluted with Detection buffer) was added to the corresponding experimental wells. 5 µL/well of ULight™-anti-cAMP antibody (diluted with Detection buffer) was added to the corresponding experimental wells, followed by centrifugation and incubation at room temperature for 1 hour. After the incubation was completed, the readings at 665 nm and 620 nm under 330 nm excitation were detected using the HTS high-throughput drug screening multifunctional microplate reader (BMG, PHERAstar FSX). The IC50 values were calculated by fitting nonlinear regression (dose response - variable slope) using GraphPad Prism software.

T1 sequence (Q92633 whole entry): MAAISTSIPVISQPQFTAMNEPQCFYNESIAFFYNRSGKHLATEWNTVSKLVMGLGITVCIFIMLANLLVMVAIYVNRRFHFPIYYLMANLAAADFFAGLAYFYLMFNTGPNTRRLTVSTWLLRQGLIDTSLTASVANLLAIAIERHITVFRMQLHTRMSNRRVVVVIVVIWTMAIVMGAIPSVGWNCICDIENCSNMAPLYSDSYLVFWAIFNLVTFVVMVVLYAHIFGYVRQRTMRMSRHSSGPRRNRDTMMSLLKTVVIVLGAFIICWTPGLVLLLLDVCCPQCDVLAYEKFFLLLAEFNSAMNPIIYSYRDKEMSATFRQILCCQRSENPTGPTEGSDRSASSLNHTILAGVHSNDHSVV

Row | SMILES | IC50 [nM]
1 | CCC(F)(F)[C@@H](C)OC(=O)Nc1c(-c2ccc(C#CC3(CC(=O)O)CC(OC)C3)c(Cl)n2)noc1C (stereo partly shown) [compound 470] | 24.1
2 | CCC(F)(F)[C@@H](C)OC(=O)Nc1c(C)noc1-c1ccc(C#CC2(CC(=O)O)CC(OC)C2)c(Cl)n1 (stereo partly shown) [compound 471] | 33.6
3 | CCC(F)(F)[C@@H](C)OC(=O)Nc1c(-c2ccc(C#Cc3ccncc3C(=O)O)c(C)n2)nnn1C [compound 474, (R)-4-((6-(5-((((3,3-difluoropentan-2-yl)oxy)carbonyl)amino)-1-methyl-1H-1,2,3-triazol-4-yl)-2-methylpyridin-3-yl)ethynyl)nicotinic acid] | 167
4 | CCc1nc(-c2nnn(C)c2NC(=O)O[C@H](C)CC(C)(F)F)ccc1C#CC1(CC(=O)O)CC(OC)C1 (stereo partly shown) [compound 476] | 76.5
5 | CCC[C@@H](C)OC(=O)Nc1c(-c2ccc(C#CC3(CC(=O)O)CC4(CC4)C3)c(C)n2)nnn1C [compound 478] | 2.1
6 | CCC(F)(F)[C@@H](C)OC(=O)Nc1c(C)noc1-c1ccc(C#C[C@@H]2CCC[C@H]2C(=O)O)c(C)n1 [compound 485] | 52.3
7 | CCC(F)(F)[C@@H](C)OC(=O)Nc1c(C)noc1-c1ccc(C#C[C@@H]2CC[C@H]2C(=O)O)c(C)n1 [compound 486] | 34.1
8 | CCC(F)(F)[C@@H](C)OC(=O)Nc1c(C)noc1-c1ccc(C#C[C@@H]2CC(F)(F)C[C@H]2C(=O)O)c(C)n1 [compound 487] | 35.2
9 | CCC(F)(F)[C@@H](C)OC(=O)Nc1c(C)noc1-c1ccc(C#CC2(CC(=O)O)CC(OC)C2)c(C)n1 (stereo partly shown) [compound 488] | 51.5
10 | CCOC1CC(C#Cc2ccc(-c3nnn(C)c3NC(=O)O[C@H](C)C(F)(F)CC)nc2CC)(CC(=O)O)C1 (stereo partly shown) [compound 489] | 14.1
11 | CCOC1CC(C#Cc2ccc(-c3nnn(C)c3NC(=O)O[C@H](C)C(F)(F)CC)nc2C(F)(F)F)(CC(=O)O)C1 (stereo partly shown) [compound 490] | 8.6
12 | CCC(F)(F)[C@@H](C)OC(=O)Nc1c(-c2ccc(C#CC3(CC(=O)O)CC(OC)C3)c(F)n2)noc1C (stereo partly shown) [compound 491] | 27.1
13 | CCC(F)(F)[C@@H](C)OC(=O)Nc1c(-c2ccc(C#CC3(CC(=O)O)CC(OC)C3)c(C(F)(F)F)n2)noc1C (stereo partly shown) [compound 493] | 8.5
14 | C[C@H](CC(C)(F)F)OC(=O)Nc1c(-c2ccc(C#CC3(CC(=O)O)CC4(CC4)C3)c(C(F)(F)F)n2)nnn1C [compound 498] | 6
15 | CCC(F)(F)[C@@H](C)OC(=O)Nc1c(-c2ccc(C#CC3(CC(=O)O)CC4(CC4)C3)c(C(F)(F)F)n2)nnn1C [compound 499] | 11.5
16 | CCc1nc(-c2nnn(C)c2NC(=O)O[C@H](C)CC(C)(F)F)ccc1C#CC1(CC(=O)O)CC2(CC2)C1 [compound 500] | 4.5
17 | C[C@H](CC(C)(F)F)OC(=O)Nc1c(-c2ccc(C#CC3(CC(=O)O)CC4(CC4)C3)c(Cl)n2)nnn1C [compound 502] | 7.2
18 | CCC(F)(F)[C@@H](C)OC(=O)Nc1c(-c2ccc(C#CC3(CC(=O)O)CC4(CC4)C3)c(Cl)n2)nnn1C [compound 503] | 8.5
19 | CCc1nc(-c2nnn(C)c2NC(=O)O[C@H](C)C(F)(F)CC)ccc1C#CC1(CC(=O)O)CC2(CC2)C1 [compound 504] | 6.4
20 | CCC[C@@H](C)OC(=O)Nc1c(-c2ccc(C#CC3(CS(=O)(=O)O)CC4(CC4)C3)c(C)n2)nnn1C [compound 508, (R)-(5-((2-methyl-6-(1-methyl-5-(((pentan-2-yloxy)carbonyl)amino)-1H-1,2,3-triazol-4-yl)pyridin-3-yl)ethynyl)spiro[2.3]hexan-5-yl)methanesulfonic acid] | 4
21 | CCC[C@@H](C)OC(=O)Nc1c(-c2ccc(C#CC3(P(=O)(O)O)CC4(CC4)C3)c(C)n2)nnn1C [compound 510] | 32.1
22 | CCC(F)(F)[C@@H](C)OC(=O)Nc1c(-c2ccc(C#Cc3cc(C(F)(F)F)ncc3C(=O)O)c(C)n2)nnn1C [compound 513] | 26.5

Source: patent publication EP4755881A1 (Wuhan Createrna Science and Technology Co., Ltd., priority 2023, dated 2025)
